Reference: patent publication US9988430B2, “Stable GLP-1 based GLP-1/glucagon receptor co-agonists” (Novo Nordisk A/S, priority 2014, dated 2018)
*1 amine or outer side, *2 acyl side, *3 side chain or, on linkers, in order; H or OH if unused. Where a SMILES comes first, the peptide text is derived from it. Bridges are numbered along the chain shown (N, C = ends). Roman numbers before positions name the chains, in order. Side-chain parts run from the residue outwards. [ ]: non-standard residue; d: D form. The star is where a group is joined. C18 diacid = O=C(O)CCCCCCCCCCCCCCCCC(=O)*; γGlu = O=C(O)[C@H](CCC(=O)[*:2])N[*:1]; Desaminohistidyl = O=C(CCc1c[nH]cn1)*; AEEA = NCCOCCOCC(=O)O; Aib = CC(C)(N)C(=O)O

Target: T1, human GLP-1 receptor (Homo sapiens, UniProt P43220)
T1 construct: expressed in transfected cells; host or cells: membranes of BHK cells, parent line BHKTS13, clone FCW467-12A
Experiment: Assay (II)(a): GLP-1 receptor binding, [125I]GLP-1 displacement, SPA on BHK membranes
Settings: displacement of [125I]GLP-1, membranes with human GLP-1 receptor; read-out: IC50 GLP-1R
Outline: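 Membranes from BHK cells expressing human GLP-1 receptor with WGA SPA beads, [125I]GLP-1(7-36)NH2 (480 pM added solution) and compound in HEPES pH 7.4 buffer with EGTA, MgCl2, Tween 20. Incubated 2 h at 30° C; SPA counts fitted by non-linear regression to IC50 in nM.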

T1 sequence (P43220 24-463): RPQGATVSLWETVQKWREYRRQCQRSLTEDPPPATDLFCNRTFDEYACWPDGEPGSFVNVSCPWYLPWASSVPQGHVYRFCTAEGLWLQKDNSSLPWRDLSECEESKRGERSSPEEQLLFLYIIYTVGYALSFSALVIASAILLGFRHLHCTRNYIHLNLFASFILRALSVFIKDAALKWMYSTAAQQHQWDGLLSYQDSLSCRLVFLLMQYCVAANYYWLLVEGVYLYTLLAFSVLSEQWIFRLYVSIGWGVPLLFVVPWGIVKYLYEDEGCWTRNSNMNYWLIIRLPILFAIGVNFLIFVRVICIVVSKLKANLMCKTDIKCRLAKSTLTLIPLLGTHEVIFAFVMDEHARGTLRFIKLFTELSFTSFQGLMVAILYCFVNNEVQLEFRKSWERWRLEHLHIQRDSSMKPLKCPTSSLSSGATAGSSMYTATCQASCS

Structure (SMILES) | IC50
CC[C@H](C)[C@H](NC(=O)[C@H](Cc1ccccc1)NC(=O)[C@H](CCC(=O)O)NC(=O)[C@H](CCCNC(=N)N)NC(=O)[C@H](C)NC(=O)[C@H](C)NC(=O)[C@H](CCC(N)=O)NC(=O)[C@H](CCC(=O)O)NC(=O)[C@H](CCC(=O)O)NC(=O)[C@H](CC(C)C)NC(=O)[C@H](Cc1ccc(O)cc1)NC(=O)[C@H](CCCNC(=N)N)NC(=O)[C@H](CO)NC(=O)[C@@H](NC(=O)[C@H](CC(=O)O)NC(=O)[C@H](CO)NC(=O)[C@@H](NC(=O)[C@H](Cc1ccccc1)NC(=O)[C@@H](NC(=O)CNC(=O)[C@H](Cc1c[nH]cn1)NC(=O)C(C)(C)NC(=O)CCc1c[nH]cn1)[C@@H](C)O)[C@@H](C)O)C(C)C)C(=O)N[C@@H](C)C(=O)N[C@@H](Cc1c[nH]c2ccccc12)C(=O)N[C@@H](CC(C)C)C(=O)N[C@@H](CC(C)C)C(=O)N[C@@H](CCCCNC(=O)CNC(=O)[C@H](CO)NC(=O)[C@H](CCC(=O)O)NC(=O)CNC(=O)[C@H](CO)NC(=O)CC[C@H](NC(=O)CC[C@H](NC(=O)CCCCCCCCCCCCCCCCC(=O)O)C(=O)O)C(=O)O)C(=O)N[C@H](C(N)=O)[C@@H](C)O [Example 7, N^ε34-[2-[[(2S)-2-[[(2S)-4-carboxy-2-[[2-[[(2S)-2-[[(4S)-4-carboxy-4-[[(4S)-4-carboxy-4-(17-carboxyheptadecanoylamino)butanoyl]amino]butanoyl]amino]-3-hydroxypropanoyl]amino]acetyl]amino]butanoyl]amino]-3-hydroxypropanoyl]amino]acetyl]-[Imp7,Aib8,His9,Arg18,Glu22,Arg26,Leu33,Thr35]-GLP-1-(7-35)-peptide amide] (I: Desaminohistidyl-[Aib]HGTFTSDVSRYLEEQAAREFIAWLLKT-NH2 / II: {C18 diacid-γGlu-γGlu}-SGESG; amide I:27-II:C) | 0.5 nM
CC[C@H](C)[C@H](NC(=O)[C@H](Cc1ccccc1)NC(=O)[C@H](CCC(=O)O)NC(=O)[C@H](CCCNC(=N)N)NC(=O)[C@H](C)NC(=O)[C@H](C)NC(=O)[C@H](CCC(N)=O)NC(=O)[C@H](CCC(=O)O)NC(=O)[C@H](CCC(=O)O)NC(=O)[C@H](CC(C)C)NC(=O)[C@H](Cc1ccc(O)cc1)NC(=O)[C@H](CCCCN)NC(=O)[C@H](CO)NC(=O)[C@@H](NC(=O)[C@H](CC(=O)O)NC(=O)[C@H](CO)NC(=O)[C@@H](NC(=O)[C@H](Cc1ccccc1)NC(=O)[C@@H](NC(=O)CNC(=O)[C@H](Cc1c[nH]cn1)NC(=O)C(C)(C)NC(=O)CCc1c[nH]cn1)[C@@H](C)O)[C@@H](C)O)C(C)C)C(=O)N[C@@H](C)C(=O)N[C@@H](Cc1c[nH]c2ccccc12)C(=O)N[C@@H](CC(C)C)C(=O)N[C@@H](CC(C)C)C(=O)N[C@@H](CCCCNC(=O)CNC(=O)[C@H](CO)NC(=O)[C@H](CCC(=O)O)NC(=O)CNC(=O)[C@H](CO)NC(=O)CC[C@H](NC(=O)CC[C@H](NC(=O)CCCCCCCCCCCCCCCCC(=O)O)C(=O)O)C(=O)O)C(=O)N[C@H](C(N)=O)[C@@H](C)O [Example 3, N^ε34-[2-[[(2S)-2-[[(2S)-4-carboxy-2-[[2-[[(2S)-2-[[(4S)-4-carboxy-4-[[(4S)-4-carboxy-4-(17-carboxyheptadecanoylamino)butanoyl]amino]butanoyl]amino]-3-hydroxypropanoyl]amino]acetyl]amino]butanoyl]amino]-3-hydroxypropanoyl]amino]acetyl]-[Imp7,Aib8,His9,Lys18,Glu22,Arg26,Leu33,Thr35]-GLP-1-(7-35)-peptide amide] (I: Desaminohistidyl-[Aib]HGTFTSDVSKYLEEQAAREFIAWLLKT-NH2 / II: {C18 diacid-γGlu-γGlu}-SGESG; amide I:27-II:C) | 0.4 nM
CC[C@H](C)[C@H](NC(=O)[C@H](Cc1ccccc1)NC(=O)[C@H](CCC(=O)O)NC(=O)[C@H](CCCNC(=N)N)NC(=O)[C@H](C)NC(=O)[C@H](C)NC(=O)[C@H](CCC(N)=O)NC(=O)CNC(=O)[C@H](CCC(=O)O)NC(=O)[C@H](CC(C)C)NC(=O)[C@H](Cc1ccc(O)cc1)NC(=O)[C@H](CCCNC(=N)N)NC(=O)[C@H](CO)NC(=O)[C@@H](NC(=O)[C@H](CC(=O)O)NC(=O)[C@H](CO)NC(=O)[C@@H](NC(=O)[C@H](Cc1ccccc1)NC(=O)[C@@H](NC(=O)CNC(=O)[C@H](Cc1c[nH]cn1)NC(=O)C(C)(C)NC(=O)CCc1c[nH]cn1)[C@@H](C)O)[C@@H](C)O)C(C)C)C(=O)N[C@@H](C)C(=O)N[C@@H](Cc1c[nH]c2ccccc12)C(=O)N[C@@H](CC(C)C)C(=O)N[C@@H](CC(C)C)C(=O)N[C@@H](CCCCNC(=O)CNC(=O)[C@H](CO)NC(=O)[C@H](CCC(=O)O)NC(=O)CNC(=O)[C@H](CO)NC(=O)CC[C@H](NC(=O)CC[C@H](NC(=O)CCCCCCCCCCCCCCCCC(=O)O)C(=O)O)C(=O)O)C(=O)N[C@H](C(N)=O)[C@@H](C)O [Example 8, N^ε34-[2-[[(2S)-2-[[(2S)-4-carboxy-2-[[2-[[(2S)-2-[[(4S)-4-carboxy-4-[[(4S)-4-carboxy-4-(17-carboxyheptadecanoylamino)butanoyl]amino]butanoyl]amino]-3-hydroxypropanoyl]amino]acetyl]amino]butanoyl]amino]-3-hydroxypropanoyl]amino]acetyl]-[Imp7,Aib8,His9,Arg18,Arg26,Leu33,Thr35]-GLP-1-(7-35)-peptide amide] (I: Desaminohistidyl-[Aib]HGTFTSDVSRYLEGQAAREFIAWLLKT-NH2 / II: {C18 diacid-γGlu-γGlu}-SGESG; amide I:27-II:C) | 0.9 nM
CC[C@H](C)[C@H](NC(=O)[C@H](Cc1ccccc1)NC(=O)[C@H](CCC(=O)O)NC(=O)[C@H](CCCNC(=N)N)NC(=O)[C@H](C)NC(=O)[C@H](C)NC(=O)[C@H](CCC(N)=O)NC(=O)[C@H](CCC(=O)O)NC(=O)[C@H](CCC(=O)O)NC(=O)[C@H](CC(C)C)NC(=O)[C@H](Cc1ccc(O)cc1)NC(=O)[C@H](CCCCN)NC(=O)[C@H](CO)NC(=O)[C@@H](NC(=O)[C@H](CC(=O)O)NC(=O)[C@H](CO)NC(=O)[C@@H](NC(=O)[C@H](Cc1ccccc1)NC(=O)[C@@H](NC(=O)CNC(=O)[C@H](Cc1c[nH]cn1)NC(=O)C(C)(C)NC(=O)CCc1c[nH]cn1)[C@@H](C)O)[C@@H](C)O)C(C)C)C(=O)N[C@@H](C)C(=O)N[C@@H](Cc1c[nH]c2ccccc12)C(=O)N[C@@H](CC(C)C)C(=O)N[C@@H](CC(C)C)C(=O)N[C@@H](CCCCNC(=O)CC[C@H](NC(=O)CC[C@H](NC(=O)CC[C@H](NC(=O)CC[C@H](NC(=O)CCCCCCCCCCCCCCCCC(=O)O)C(=O)O)C(=O)O)C(=O)O)C(=O)O)C(=O)N[C@H](C(N)=O)[C@@H](C)O [Example 6, N^ε34-[(4S)-4-carboxy-4-[[(4S)-4-carboxy-4-[[(4S)-4-carboxy-4-[[(4S)-4-carboxy-4-(17-carboxyheptadecanoylamino)butanoyl]amino]butanoyl]amino]butanoyl]amino]butanoyl]-[Imp7,Aib8,His9,Lys18,Glu22,Arg26,Leu33,Thr35]-GLP-1-(7-35)-peptide amide] (Desaminohistidyl-[Aib]HGTFTSDVSKYLEEQAAREFIAWLLK([γGlu-γGlu-γGlu-γGlu-C18 diacid])T-NH2) | 0.3 nM
CC[C@H](C)[C@H](NC(=O)[C@H](Cc1ccccc1)NC(=O)[C@H](CCC(=O)O)NC(=O)[C@H](CCCNC(=N)N)NC(=O)[C@H](C)NC(=O)[C@H](C)NC(=O)[C@H](CCC(N)=O)NC(=O)[C@H](CCC(=O)O)NC(=O)[C@H](CCC(=O)O)NC(=O)[C@H](CC(C)C)NC(=O)[C@H](Cc1ccc(O)cc1)NC(=O)[C@H](CCCCN)NC(=O)[C@H](CO)NC(=O)[C@@H](NC(=O)[C@H](CC(=O)O)NC(=O)[C@H](CO)NC(=O)[C@@H](NC(=O)[C@H](Cc1ccccc1)NC(=O)[C@@H](NC(=O)CNC(=O)[C@H](Cc1c[nH]cn1)NC(=O)C(C)(C)NC(=O)CCc1c[nH]cn1)[C@@H](C)O)[C@@H](C)O)C(C)C)C(=O)N[C@@H](C)C(=O)N[C@@H](Cc1c[nH]c2ccccc12)C(=O)N[C@@H](CC(C)C)C(=O)N[C@@H](CC(C)C)C(=O)N[C@@H](CCCCNC(=O)CNC(=O)[C@H](CO)NC(=O)CC[C@H](NC(=O)CC[C@H](NC(=O)CCCCCCCCCCCCCCCCC(=O)O)C(=O)O)C(=O)O)C(=O)N[C@H](C(N)=O)[C@@H](C)O [Example 4, N^ε34-[2-[[(2S)-2-[[(4S)-4-carboxy-4-[[(4S)-4-carboxy-4-(17-carboxyheptadecanoylamino)butanoyl]amino]butanoyl]amino]-3-hydroxypropanoyl]amino]acetyl]-[Imp7,Aib8,His9,Lys18,Glu22,Arg26,Leu33,Thr35]-GLP-1-(7-35)-peptide amide] (Desaminohistidyl-[Aib]HGTFTSDVSKYLEEQAAREFIAWLLK([Gly-Ser-γGlu-γGlu-C18 diacid])T-NH2) | 0.2 nM
CC[C@H](C)[C@H](NC(=O)[C@H](Cc1ccccc1)NC(=O)[C@H](CCC(=O)O)NC(=O)[C@H](CCCNC(=N)N)NC(=O)[C@H](C)NC(=O)[C@H](C)NC(=O)[C@H](CCCNC(=N)N)NC(=O)CNC(=O)[C@H](CCC(=O)O)NC(=O)[C@H](CC(C)C)NC(=O)[C@H](Cc1ccc(O)cc1)NC(=O)[C@H](CCCCN)NC(=O)[C@H](CO)NC(=O)[C@@H](NC(=O)[C@H](CC(=O)O)NC(=O)[C@H](CO)NC(=O)[C@@H](NC(=O)[C@H](Cc1ccccc1)NC(=O)[C@@H](NC(=O)CNC(=O)[C@H](Cc1c[nH]cn1)NC(=O)[C@H](C)NC(=O)CCc1c[nH]cn1)[C@@H](C)O)[C@@H](C)O)C(C)C)C(=O)N[C@@H](C)C(=O)N[C@@H](Cc1c[nH]c2ccccc12)C(=O)N[C@@H](CC(C)C)C(=O)N[C@@H](CC(C)C)C(=O)N[C@@H](CCCCNC(=O)COCCOCCNC(=O)COCCOCCNC(=O)CC[C@H](NC(=O)CC[C@H](NC(=O)CC[C@H](NC(=O)CCCCCCCCCCCCCCCCC(=O)O)C(=O)O)C(=O)O)C(=O)O)C(=O)N[C@H](C(N)=O)[C@@H](C)O [Example 10, N^ε34-[2-[2-[2-[[2-[2-[2-[[(4S)-4-carboxy-4-[[(4S)-4-carboxy-4-[[(4S)-4-carboxy-4-(17-carboxyheptadecanoylamino)butanoyl]amino]butanoyl]amino]butanoyl]amino]ethoxy]ethoxy]acetyl]amino]ethoxy]ethoxy]acetyl]-[Imp7,His9,Lys18,Arg23,Arg26,Leu33,Thr35]-GLP-1-(7-35)-peptide amide] (Desaminohistidyl-AHGTFTSDVSKYLEGRAAREFIAWLLK([AEEA-AEEA-γGlu-γGlu-γGlu-C18 diacid])T-NH2) | 1 nM
